# Laboratory results as given in ChEMBL document CHEMBL5120880, “Peptidomimetics: An Overview of Recent Medicinal Chemistry Efforts toward the Discovery of Novel Small Molecule Inhibitors” (J Med Chem, 2022).
# Peptide text beside a SMILES is read from it.
# Experiments:
# Staphylococcus aureus [1] = experiment: Antimicrobial activity against Staphylococcus aureus KCTC 1621 assessed as minimal inhibitory concentration incubated for 18 hrs; format: functional
# [2] = test system: Staphylococcus epidermidis; experiment: Antimicrobial activity against Staphylococcus epidermidis KCTC 1917 assessed as minimal inhibitory concentration incubated for 18 hrs; format: functional
# Escherichia coli [3] = experiment: Antimicrobial activity against Escherichia coli KCTC 1682 assessed as minimal inhibitory concentration incubated for 18 hrs; format: functional
# Pseudomonas aeruginosa = experiment: Antimicrobial activity against Pseudomonas aeruginosa KCTC 1637 assessed as minimal inhibitory concentration incubated for 18 hrs; format: functional
# Salmonella typhimurium = experiment: Antibacterial activity against Salmonella typhimurium TA100 assessed as minimal inhibitory concentration by microdilution assay; format: functional, Salmonella enterica subsp. enterica serovar Typhimurium; conditions: Salmonella enterica
# Bacillus subtilis [4] = experiment: Antibacterial activity against Bacillus subtilis DSM10 assessed as minimal inhibitory concentration by microdilution assay; format: functional
# Escherichia coli [5] = experiment: Antibacterial activity against Escherichia coli BW25113 assessed as minimal inhibitory concentration by microdilution assay; format: functional
# Mycolicibacterium phlei = experiment: Antibacterial activity against Mycobacterium phlei DSM750 assessed as minimal inhibitory concentration by microdilution assay; format: functional
# Bacillus subtilis [6] = experiment: Antibacterial activity against Bacillus subtilis assessed as minimal inhibitory concentration incubated for 72 hrs; format: functional
# Staphylococcus aureus [7] = experiment: Antibacterial activity against Staphylococcus aureus MRSA assessed as minimal inhibitory concentration incubated for 24 hrs; format: functional
# Escherichia coli [8] = experiment: Antibacterial activity against Escherichia coli assessed as minimal inhibitory concentration incubated for 24 hrs; format: functional
# Staphylococcus aureus [9] = experiment: Antibacterial activity against Staphylococcus aureus assessed as minimal inhibitory concentration incubated for 24 hrs; format: functional
# Salmonella enterica = experiment: Antibacterial activity against Salmonella enterica assessed as minimal inhibitory concentration incubated for 24 hrs; format: functional
# SARS-CoV-2 = experiment: microbe, parasite or virus in culture; conditions: Severe acute respiratory syndrome coronavirus 2
# Murine hepatitis virus = experiment: microbe, parasite or virus in culture; conditions: Murine coronavirus
# [10] = test system: Middle East respiratory syndrome-related coronavirus; experiment: microbe, parasite or virus in culture
# [11] = test system: Feline infectious peritonitis virus; experiment: microbe, parasite or virus in culture; conditions: Alphacoronavirus 1
# SARS-CoV = experiment: microbe, parasite or virus in culture; conditions: Severe acute respiratory syndrome-related coronavirus
Compound,MIC (Staphylococcus aureus [1]),MIC [2],MIC (Escherichia coli [3]),MIC (Pseudomonas aeruginosa),MIC (Bacillus subtilis [6]),MIC (Staphylococcus aureus [7]),MIC (Escherichia coli [8]),MIC (Staphylococcus aureus [9]),MIC (Salmonella enterica),also measured
CC(=O)NCCNc1nc(NCC(N)=O)nc(N(CCCN)CCCN)n1,> 128 µg/mL,> 128 µg/mL,128 µg/mL,128 µg/mL,–,–,–,–,–,–
COc1c(/C=C/c2ccc(NC(=O)[C@H](CC#N)NC(=O)c3ccc(NC(=O)/C(C)=C/c4ccc(O)cc4)cc3)cc2)ccc(C(=O)Nc2ccc(C(=O)O)c(O)c2OC)c1O,–,–,–,–,–,–,–,–,–,MIC (Salmonella typhimurium): 0.063 µg/mL; MIC (Bacillus subtilis [4]): 0.063 µg/mL; MIC (Escherichia coli [5]): 0.125 µg/mL; MIC (Mycolicibacterium phlei): 0.5 µg/mL
CC(=O)NCCNc1nc(NCC(=O)NCCNc2nc(NCC(=O)NCCNc3nc(NCC(N)=O)nc(N(Cc4ccccc4)Cc4ccccc4)n3)nc(N(CCCN)CCCN)n2)nc(N(Cc2ccccc2)Cc2ccccc2)n1,64 µg/mL,64 µg/mL,128 µg/mL,32 µg/mL,–,–,–,–,–,–
CC(=O)NCCNc1nc(NCC(=O)NCCNc2nc(NCC(=O)NCCNc3nc(NCC(=O)NCCNc4nc(NCC(N)=O)nc(N(Cc5ccccc5)Cc5ccccc5)n4)nc(N(CCCN)CCCN)n3)nc(N(Cc3ccccc3)Cc3ccccc3)n2)nc(N(CCCN)CCCN)n1,16 µg/mL,16 µg/mL,16 µg/mL,16 µg/mL,–,–,–,–,–,–
CCCCCCNC(=O)[C@@H](N)Cc1ccccc1,–,–,–,–,156 µg/mL,312 µg/mL,156 µg/mL,624 µg/mL,156 µg/mL,–
COc1c(C#Cc2ccc(NC(=O)[C@H](CC#N)NC(=O)c3ccc(NC(=O)/C(C)=C/c4ccc(O)cc4)cc3)cc2)ccc(C(=O)Nc2ccc(C(=O)O)c(O)c2OC)c1O,–,–,–,–,–,–,–,–,–,MIC (Salmonella typhimurium): ≤ 0.016 µg/mL; MIC (Bacillus subtilis [4]): 0.063 µg/mL; MIC (Escherichia coli [5]): < 0.063 µg/mL; MIC (Mycolicibacterium phlei): 0.5 µg/mL
COc1c(NC(=O)c2ccc(-c3cc4ccc(-c5ccc(NC(=O)[C@H](CC#N)NC(=O)c6ccc(NC(=O)/C(C)=C/c7ccc(O)cc7)cc6)cc5)cc4o3)c(OC)c2O)ccc(C(=O)O)c1O,–,–,–,–,–,–,–,–,–,MIC (Salmonella typhimurium): 0.125 µg/mL; MIC (Bacillus subtilis [4]): 0.25 µg/mL; MIC (Escherichia coli [5]): 1 µg/mL; MIC (Mycolicibacterium phlei): 1 µg/mL
CC(=O)NCCNc1nc(NCC(N)=O)nc(N(Cc2ccccc2)Cc2ccccc2)n1,> 128 µg/mL,> 128 µg/mL,> 128 µg/mL,> 128 µg/mL,–,–,–,–,–,–
CC(C)C[C@H](NC(=O)OCC1CCC(F)(F)CC1)C(=O)N[C@@H](C[C@H]1CCNC1=O)C(O)S(=O)(=O)O (stereo not given in full),–,–,–,–,–,–,–,–,–,IC50 (SARS-CoV-2): 1100 nM; EC50 (Murine hepatitis virus): 160 nM; IC50 [10]: 100 nM; EC50 [11]: 70 nM; IC50 (SARS-CoV): 1100 nM
CC(C)C[C@H](NC(=O)OC1CCCCC1)C(=O)N[C@H](C=O)C[C@H]1CCNC1=O,–,–,–,–,–,–,–,–,–,IC50 (SARS-CoV-2): 3700 nM; EC50 (Murine hepatitis virus): 120 nM; IC50 [10]: 350 nM; EC50 [11]: 90 nM; IC50 (SARS-CoV): 3900 nM
CC(=O)NCCNc1nc(NCC(=O)NCCNc2nc(NCC(N)=O)nc(N(Cc3ccccc3)Cc3ccccc3)n2)nc(N(CCCN)CCCN)n1,32 µg/mL,32 µg/mL,64 µg/mL,32 µg/mL,–,–,–,–,–,–
COc1c(NC(=O)c2ccc(-c3ccc4[nH]c(-c5ccc(NC(=O)[C@H](CC#N)NC(=O)c6ccc(NC(=O)/C(C)=C/c7ccc(O)cc7)cc6)cc5)nc4c3)c(OC)c2O)ccc(C(=O)O)c1O,–,–,–,–,–,–,–,–,–,MIC (Salmonella typhimurium): 0.063 µg/mL; MIC (Bacillus subtilis [4]): 2 µg/mL; MIC (Escherichia coli [5]): 0.25 µg/mL; MIC (Mycolicibacterium phlei): 8 µg/mL
CC(=O)N[C@@H](Cc1c[nH]c2ccccc12)C(=O)N[C@@H](CCCCN)C(=O)N[C@@H](Cc1c[nH]c2ccccc12)C(N)=O (Ac-Trp-Lys-Trp-NH2),> 128 µg/mL,> 128 µg/mL,> 128 µg/mL,> 128 µg/mL,–,–,–,–,–,–
CC(=O)NCCNc1nc(NCC(=O)NCCNc2nc(NCC(=O)NCCNc3nc(NCC(N)=O)nc(N(CCCN)CCCN)n3)nc(N(Cc3ccccc3)Cc3ccccc3)n2)nc(N(CCCN)CCCN)n1,16 µg/mL,16 µg/mL,16 µg/mL,16 µg/mL,–,–,–,–,–,–
CCCCCCCCCCCCNC(=O)[C@@H](N)CC(C)C,–,–,–,–,10 µg/mL,6.25 µg/mL,2.5 µg/mL,3.3 µg/mL,4.17 µg/mL,–
CCCCCCCCCCCCNC(=O)[C@@H](N)C(C)CC (stereo not given in full),–,–,–,–,510 µg/mL,4 µg/mL,2 µg/mL,2.5 µg/mL,5 µg/mL,–
CCCCNC(=O)[C@@H](N)Cc1ccccc1,–,–,–,–,416 µg/mL,624 µg/mL,–,1250 µg/mL,416 µg/mL,–

Compound,MIC (Staphylococcus aureus [1]),MIC [2],MIC (Escherichia coli [3]),MIC (Pseudomonas aeruginosa),MIC (Bacillus subtilis [6]),MIC (Staphylococcus aureus [7]),MIC (Escherichia coli [8]),MIC (Staphylococcus aureus [9]),MIC (Salmonella enterica),also measured
CCCC1CCC(OC(=O)N[C@@H](CC(C)C)C(=O)N[C@@H](C[C@H]2CCNC2=O)C(O)S(=O)(=O)O)CC1 (stereo not given in full),–,–,–,–,–,–,–,–,–,IC50 (SARS-CoV-2): 1600 nM; EC50 (Murine hepatitis virus): 160 nM; IC50 [10]: 100 nM; EC50 [11]: 170 nM
COc1c(NC(=O)c2ccc(NC(=O)c3ccc(NC(=O)[C@H](Cc4nn[nH]n4)NC(=O)c4ccc(NC(=O)/C(C)=C/c5ccc(O)cc5)cc4)cc3)c(OC)c2O)ccc(C(=O)O)c1O,–,–,–,–,–,–,–,–,–,MIC (Salmonella typhimurium): 0.063 µg/mL; MIC (Bacillus subtilis [4]): 0.25 µg/mL; MIC (Escherichia coli [5]): 0.063 µg/mL; MIC (Mycolicibacterium phlei): 2 µg/mL
CCCCCCCCCCCCNC(=O)[C@@H](N)C(C)C,–,–,–,–,4.2 µg/mL,8.3 µg/mL,1.67 µg/mL,3.3 µg/mL,6.5 µg/mL,–
CC(=O)N[C@@H](CCCCN)C(=O)N[C@@H](Cc1c[nH]c2ccccc12)C(=O)N[C@@H](CCCCN)C(N)=O (Ac-Lys-Trp-Lys-NH2),> 128 µg/mL,> 128 µg/mL,64 µg/mL,128 µg/mL,–,–,–,–,–,–
CCCCCCCCNC(=O)[C@@H](N)Cc1ccccc1,–,–,–,–,78 µg/mL,52 µg/mL,39 µg/mL,39 µg/mL,62.5 µg/mL,–
CCCCCCCCCCCCCCCCNC(=O)[C@@H](N)Cc1ccccc1,–,–,–,–,625 µg/mL,1250 µg/mL,1250 µg/mL,1250 µg/mL,625 µg/mL,–
COc1c(CCc2ccc(NC(=O)[C@H](CC#N)NC(=O)c3ccc(NC(=O)/C(C)=C/c4ccc(O)cc4)cc3)cc2)ccc(C(=O)Nc2ccc(C(=O)O)c(O)c2OC)c1O,–,–,–,–,–,–,–,–,–,MIC (Salmonella typhimurium): 0.25 µg/mL; MIC (Bacillus subtilis [4]): 0.063 µg/mL; MIC (Escherichia coli [5]): 0.25 µg/mL; MIC (Mycolicibacterium phlei): 1 µg/mL
C#Cc1cccc(NC(=O)[C@@H](N)CC(C)C)c1,–,–,–,–,31.2 µg/mL,31.2 µg/mL,10.6 µg/mL,10.6 µg/mL,15.6 µg/mL,–
CCCCCCCCCCNC(=O)[C@@H](N)Cc1ccccc1,–,–,–,–,39 µg/mL,20 µg/mL,10 µg/mL,13.3 µg/mL,15.6 µg/mL,–
CCCCCCCCCCCCNC(=O)[C@H](N)Cc1ccccc1,–,–,–,–,8.3 µg/mL,20 µg/mL,5 µg/mL,5 µg/mL,10 µg/mL,–
CC(=O)N[C@@H](CCCCN)C(=O)N[C@@H](Cc1c[nH]c2ccccc12)C(N)=O (Ac-Lys-Trp-NH2),> 128 µg/mL,> 128 µg/mL,128 µg/mL,128 µg/mL,–,–,–,–,–,–
COc1c(/C=C(\F)c2ccc(NC(=O)[C@H](CC#N)NC(=O)c3ccc(NC(=O)/C(C)=C/c4ccc(O)cc4)cc3)cc2)ccc(C(=O)Nc2ccc(C(=O)O)c(O)c2OC)c1O,–,–,–,–,–,–,–,–,–,MIC (Salmonella typhimurium): 0.031 µg/mL; MIC (Bacillus subtilis [4]): 0.031 µg/mL; MIC (Escherichia coli [5]): < 0.063 µg/mL; MIC (Mycolicibacterium phlei): 0.25 µg/mL
CCCCCCCCCCCCNC(=O)[C@@H](N)Cc1ccccc1,–,–,–,–,10 µg/mL,16.6 µg/mL,5 µg/mL,2.5 µg/mL,5 µg/mL,–
CC(=O)N[C@@H](CCCCN)C(=O)N[C@@H](Cc1c[nH]c2ccccc12)C(=O)N[C@@H](CCCCN)C(=O)N[C@@H](Cc1c[nH]c2ccccc12)C(N)=O (Ac-KWKW-NH2),> 128 µg/mL,> 128 µg/mL,> 128 µg/mL,> 128 µg/mL,–,–,–,–,–,–
C#Cc1cccc(NC(=O)[C@@H](N)C(C)CC)c1 (stereo not given in full),–,–,–,–,–,62.4 µg/mL,15.6 µg/mL,31.2 µg/mL,15.6 µg/mL,–
CCCCCCCCCCCCNC(=O)[C@@H](N)c1ccccc1,–,–,–,–,15.6 µg/mL,15.6 µg/mL,2.5 µg/mL,7.8 µg/mL,3.9 µg/mL,–
